Test results reported in ChEMBL document CHEMBL6120996, “Discovery and optimization of 1,2,4-triazole derivatives as novel ferroptosis inhibitors” (Eur J Med Chem, 2025).
Active and inactive are the calls of the source. No cut-off for these calls is given here.

Assays:
786-0 [1] = experiment: Inhibition of RSL3-induced ferroptosis in human 786-0 cells assessed as cell viability incubated for 24 hrs by CellTiter-LumiTM assay; assay type: functional, cell-based; settings: 786-0, 24 h
HT-1080 = experiment: Anti-ferroptotic activity in human GPX4 knockout HT-1080 cells assessed as cell viability at 1 uM incubated for 24 hrs by CellTiter-LumiTM plus luminescent cell viability assay; assay type: functional, cell-based
[2] = Metabolic stability in human plasma assessed as half life at 1 uM by LC-MS/MS analysis; assay type: ADME, cell-free
[3] = Metabolic stability in rat plasma assessed as half life at 1 uM by LC-MS/MS analysis; assay type: ADME, cell-free
[4] = Microsomal stability in human liver microsomes assessed as half life at 0.1 uM by LC-MS/MS analysis; assay type: ADME, Microsome; settings: liver microsomes
[5] = Microsomal stability in rat liver microsomes assessed as half life at 0.1 uM by LC-MS/MS analysis; assay type: ADME, Microsome; settings: liver microsomes
[6] = Microsomal stability in human liver microsomes assessed as hepatic clearance at 0.1 uM by LC-MS/MS analysis; assay type: ADME, Microsome
[7] = Microsomal stability in human liver microsomes assessed as hepatic extraction ratio at 0.1 uM by LC-MS/MS analysis; assay type: ADME, Microsome; settings: read-out: ERH
[8] = Microsomal stability in rat liver microsomes assessed as hepatic clearance at 0.1 uM by LC-MS/MS analysis; assay type: ADME, Microsome
[9] = Microsomal stability in rat liver microsomes assessed as hepatic extraction ratio at 0.1 uM by LC-MS/MS analysis; assay type: ADME, Microsome; settings: read-out: ERH
786-0 [10] = experiment: Inhibition of RSL3-induced ferroptosis in human 786-0 cells assessed as cell viability by assessing cell morphology incubated for 24 hrs by CellTiter-LumiTM plus luminescent cell viability assay; assay type: functional, cell-based; settings: 786-0, 24 h
[11] = Inhibition of erastin induced ferroptosis in human 786-0 cells assessed as cell viability incubated for 24 hrs by CellTiter-LumiTM assay; assay type: functional, cell-based; settings: 786-0, 24 h
[12] = Inhibition of RSL3 induced ferroptosis in H9c2 cells assessed as cell viability incubated for 24 hrs by CellTiter-LumiTM assay; assay type: functional, cell-based; settings: Rattus norvegicus, H9c2, 24 h
[13] = Inhibition of RSL3 induced ferroptosis in human HT-1080 cells assessed as cell viability incubated for 24 hrs by CellTiter-LumiTM assay; assay type: functional, cell-based; settings: HT-1080, 24 h
[14] = Inhibition of RSL3 induced ferroptosis in human SK-HEP1 cells assessed as cell viability incubated for 24 hrs by CellTiter-LumiTM assay; assay type: functional, cell-based; settings: SK-HEP1, 24 h
[15] = Inhibition of RSL3 induced ferroptosis in human MHCC97H cells assessed as cell viability incubated for 24 hrs by CellTiter-LumiTM assay; assay type: functional, cell-based
786-0 [16] = experiment: Inhibition of STS induced apoptosis in human 786-0 cells assessed as cell viability at 1 uM incubated for 24 hrs by CellTiter-LumiTM assay; assay type: functional, cell-based
786-0 [17] = experiment: Inhibition of H2O2 induced necrosis in human 786-0 cells assessed as cell viability at 1 uM incubated for 24 hrs by CellTiter-LumiTM assay; assay type: functional, cell-based
786-0 [18] = experiment: Metal chelating activity assessed as Fe2+ chelation in human 786-0 cells assessed as intracellular ferrous ion level at 1 uM by FerroOrange fluorescent probe based assay; assay type: cell-based
786-0 [19] = experiment: Inhibition of RSL3 induced ferroptosis in human 786-0 cells assessed as cell viability in presence of iFSP1 at 1 uM measured after 24 hrs by CellTiter-LumiTM assay; assay type: functional, cell-based
786-0 [20] = experiment: Effect on erastin-induced decrease in GSH level in human 786-0 cells at 1 uM incubated for 10 hrs by Total intracellular GSH assay; assay type: functional, cell-based
786-0 [21] = experiment: Cytotoxicity against human 786-0 cells assessed as cell viability incubated for 24 hrs by CellTiter-LumiTM assay; assay type: functional
786-0 [22] = experiment: Inhibition of RSL3 induced lipid-ROS accumulation in human 786-0 cells incubated for 2.5 hrs by C11-BODIPY 581/591 staining coupled with flow cytometry analysis; assay type: functional, cell-based; settings: dose 0.1-1 µM
786-0 [23] = experiment: Inhibition of RSL3 induced lipid-ROS accumulation in human 786-0 cells assessed as fast elimination at 1 uM measured after 0.25 to 2.5 hrs by C11-BODIPY 581/591 staining coupled with flow cytometry analysis; assay type: functional, cell-based; settings: time 0.25-2.5 hrs
SK-HEP1 [24] = experiment: Inhibition of RSL3 induced lipid-ROS accumulation in human SK-HEP1 cells at 1 uM incubated for 2.5 hrs by C11-BODIPY 581/591 staining coupled with flow cytometry analysis; assay type: functional, cell-based
SK-HEP1 [25] = experiment: Inhibition of RSL3 induced lipid-ROS accumulation in human SK-HEP1 cells at 1 uM incubated for 0.5 hrs by C11-BODIPY 581/591 staining coupled with flow cytometry analysis; assay type: functional, cell-based
[26] = Antioxidant activity assessed as free radical scavenging activity incubated for 30 mins in dark by DPPH assay relative to control; assay type: functional
[27] = Metal chelating activity assessed as Fe2+ chelation assessed as absorbance peak at 430 nm by UV-vis spectroscopy; settings: dose 1.0 µM
[28] = Suppression of autoxidation of liposomes egg ( unknown origin) phosphatidylcholine lipids as substrate at 0.1 to 2.5 uM incubated for 5 min by C11-BODIPY 581/591 dye based fluorescent assay; assay type: functional; settings: dose 0.1-2.5 µM
Mus musculus [29] = experiment: Anti-ferroptotic activity in ConA-induced C57 mouse liver injury model assessed as reduction in ALT levels in serum at 10 mg/kg, ip pre-treated 1 day followed by treated with ConA measured after 24 hrs; assay type: functional, organism-based; settings: time 2.0 day
Mus musculus [30] = experiment: Anti-ferroptotic activity in ConA-induced C57 mouse liver injury model assessed as reduction in AST levels in serum at 10 mg/kg, ip pre-treated 1 day followed by challenged with ConA measured after 24 hrs; assay type: functional, organism-based
786-0 [31] = experiment: Effect on GPX4 expression in human 786-0 cells at 1 uM incubated for 2.5 hrs by Western blot analysis; assay type: functional, cell-based
786-0 [32] = experiment: Effect on IRP1 expression in human 786-0 cells at 1 uM incubated for 2.5 hrs by western blot analysis; assay type: functional, cell-based
786-0 [33] = experiment: Effect on ACSL4 expression in human 786-0 cells at 1 uM incubated for 2.5 hrs by Western blot analysis; assay type: functional, cell-based
786-0 [34] = experiment: Effect on SLC7A11 expression in human 786-0 cells at 1 uM incubated for 2.5 hrs by Western blot analysis; assay type: functional, cell-based
786-0 [35] = experiment: Effect on TFRC expression in human 786-0 cells at 1 uM incubated for 2.5 hrs by Western blot analysis; assay type: functional, cell-based
786-0 [36] = experiment: Effect on FTH1 expression in human 786-0 cells at 1 uM incubated for 2.5 hrs by western blot analysis; assay type: functional, cell-based
786-0 [37] = experiment: Effect on FTL expression in human 786-0 cells at 1 uM incubated for 2.5 hrs by western blot analysis; assay type: functional, cell-based
Mus musculus [38] = experiment: Anti-ferroptotic activity in ConA-induced C57 mouse liver injury model assessed as decrease in acute liver injury at 10 mg/kg, ip pre-administered one day followed by treated with ConA measured after 24 hrs by HE staining based analysis; assay type: functional, organism-based; settings: time 48.0 hrs
Mus musculus [39] = experiment: Anti-ferroptotic activity in ConA-induced C57 mouse acute liver injury model assessed as reduction in malondialdehyde levels at 10 mg/kg, ip pre-administered one day followed by treated with ConA measured after 24 hrs by MDA kit assay; assay type: functional, organism-based; settings: time 48.0 hrs
Mus musculus [40] = experiment: Anti-ferroptotic activity in ConA-induced C57 mouse acute liver injury model assessed as assessed as reduction in PTGS2 mRNA levels in liver tissue at 10 mg/kg, ip pre-administered one day followed by treated with ConA measured after 24 hrs by qRT-PCR analysis; assay type: functional, organism-based; settings: time 48.0 hrs
Mus musculus [41] = experiment: Anti-ferroptotic activity in ConA-induced C57 mouse acute liver injury model assessed as assessed as reduction in 4-HNE accumulation in liver tissue at 10 mg/kg, ip pre-administered one day followed by treated with ConA measured after 24 hrs by 4-HNE staining based analysis; assay type: functional, organism-based; settings: time 48.0 hrs
786-0 [42] = experiment: Inhibition of RSL3-induced ferroptosis in human 786-0 cells assessed as cell protection by assessing cell morphology at 1 uM incubated for 24 hrs; assay type: functional, cell-based
786-0 [43] = experiment: Effect on TFRC expression in human 786-0 cells in presence of 0.25 uM RSL3 at 1 uM incubated for 2.5 hrs by Western blot analysis; assay type: functional, cell-based
786-0 [44] = experiment: Effect on IRP1 expression in human 786-0 cells in presence of 0.25 uM RSL3 at 1 uM incubated for 2.5 hrs by Western blot analysis; assay type: functional, cell-based
786-0 [45] = experiment: Effect on FTH1 expression in human 786-0 cells in presence of 0.25 uM RSL3 at 1 uM incubated for 2.5 hrs by Western blot analysis; assay type: functional, cell-based
786-0 [46] = experiment: Effect on FTL expression in human 786-0 cells in presence of 0.25 uM RSL3 at 1 uM incubated for 2.5 hrs by Western blot analysis; assay type: functional, cell-based

## COc1cccc(C2N(c3ccccc3)N=C(C(C)=O)N2c2ccc(N(C)C)cc2)c1OCc1ccc(F)c(F)c1 (configuration not stated)
786-0 [1]
  EC50: 60 nM
HT-1080
  Activity: Active
[2]
  half-life at 1 µM: 33.7 h
[3]
  half-life at 1 µM: 6.58 h
[4]
  half-life at 0.1 µM: 5.74 min
[5]
  half-life at 0.1 µM: 2.87 min
[6]
  CLhep predicted at 0.1 µM: 20.4 mL/min/kg
[7]
  hepatic extraction ratio at 0.1 µM: 0.986
[8]
  CLhep predicted at 0.1 µM: 54.5 mL/min/kg
[9]
  hepatic extraction ratio at 0.1 µM: 0.987
786-0 [10]
  EC50: 62 nM
[11]
  EC50: 44 nM
[12]
  EC50: 122 nM
[13]
  EC50: 186 nM
[14]
  EC50: 134 nM
[15]
  EC50: 288 nM
786-0 [16]
  inhibition: inactive
786-0 [17]
  inhibition: inactive
786-0 [18]
  Activity: inactive
786-0 [19]
  inhibition: Active
786-0 [20]
  Activity: inactive
786-0 [21]
  CC50: > 40000 nM
786-0 [22]
  inhibition: Dose-dependent-effect
786-0 [23]
  inhibition: Active; Eliminated As Fast As Fer-1
SK-HEP1 [24]
  inhibition: Active
SK-HEP1 [25]
  inhibition: Active
[26]
  Activity: Active
[27]
  Activity: inactive
[28]
  Activity: Dose-dependent-effect
Mus musculus [29]
  Activity: Active
Mus musculus [30]
  Activity: Active
786-0 [31]
  Activity: No effect
786-0 [32]
  Activity: No effect
786-0 [33]
  Activity: No effect
786-0 [34]
  Activity: No effect
786-0 [35]
  Activity: No effect
786-0 [36]
  Activity: No effect
786-0 [37]
  Activity: No effect
Mus musculus [38]
  Activity: Active
Mus musculus [39]
  Activity: Active
Mus musculus [40]
  Activity: Active
Mus musculus [41]
  Activity: Active
786-0 [42]
  Activity: Active
786-0 [43]
  Activity: inactive
786-0 [44]
  Activity: inactive
786-0 [45]
  Activity: inactive
786-0 [46]
  Activity: inactive
